Test results: patent publication US20190209680A1, “TREATMENT OF ACUTE LIVER FAILURE” (The University of Birmingham, priority 2016, published 2019)

Tested on: carbon tetrachloride induced liver injury in CLEC1b fl/fl PF4cre mice
Assay: Carbon tetrachloride injection in CLEC1b fl/fl PF4cre (KO) mice pre-treated with Etanercept
Assay type: in vivo, mouse
Conditions: for Number of neutrophils per gram of liver tissue: 48 hours after carbon tetrachloride injection
Experimental: Kupffer cells isolated from WT mouse livers were plated in a tissue culture well, treated with lipopolysaccharide (LPS) and incubated with either platelets from CLEC2 deficient animals or WT platelets. (A) Production of TNF-alpha by Kupffer cells was measured in response to LPS plus either CLEC-2 deficient (KO) platelets or WT platelets (n=4 per group). (B) Isolated Kupffer cells (F480^+, shown in green), were incubated with either CLEC2 deficient or WT platelets (CD41^+, shown in purple). DAPI (blue) was used as a nuclear stain. Representative images (63× magnification) are shown. (C) Serum was isolated from WT and CLEC1b fl/fl PF4cre (KO) mice at 24 hours after carbon tetrachloride injection and serum TNF-alpha levels measured by ELISA. Levels are shown as picograms/ml (n=6/group) (*P<0.05, **P<0.01, ***P<0.001), (D) CLEC1b fl/fl PF4cre mice were pre-treated with an anti-TNF-alpha monoclonal antibody (Etanercept) before carbon tetrachloride injection (KO+AB). WT and CLEC1b fl/fl PF4cre mice not pre-treated before carbon tetrachloride injection were used as controls (WT and KO, accordingly). Mice were sacrificed 48 hours after the carbon tetrachloride injection. […]
Mouse livers were harvested after the animal was euthanized under deep sedation after cardiac puncture. […] The resulting immune cells were then purified using an Optiprep gradient (Sigma) and analysed by flow cytometry. […] Absolute cell counts were determined with AccuCheck Counting Beads (Invitrogen), and the number of cells was normalised to the total liver weight. Data were analysed using a CyAn ADP flow cytometer (Beckman Coulter) or a BD LSRII using Summit version 4.3 or FlowJo version 10.0.7 software where appropriate.
Serum was isolated from whole blood and levels of liver-specific enzymes AST and ALT were measured on a clinical autoanalyser, according to standard protocols in the Biochemistry Department at the Birmingham Women's Hospital, Birmingham, UK. […]

Q: For Etanercept, which “Number of neutrophils per gram of liver tissue” value (compared to CLEC1b fl/fl PF4cre mice not pre-treated with antibody (FIG. 3D)) is on record?
A: Its value is “substantially reduced”.

Q: And the “Number of neutrophils per gram of liver tissue” value (pre-treated KO mice relative to WT control (FIG. 3D))?
A: Its value is “comparable to WT control”.

Q: What about the “Serum ALT levels” value (48 hours post carbon tetrachloride, compared to CLEC-2 deficient mice not given antibody (FIG. 3E)) of the same substance?
A: Its value is “considerably higher”.
